US20260297080A1, “BICYCLIC COMPOUNDS AS CDK INHIBITORS” (BeOne Medicines I GmbH, priority 2022, published 2026)

Experiments:
CDK2/Cyclin E1 = CDK2/Cyclin E1 (Homo sapiens, UniProt P24941); experiment: CDK2/Cyclin E1 Biochemical Assay (TR-FRET), 0.060 mM ATP; settings: 0.15 μM Rb (Ser780)-biotin substrate, pH7.0, 60 min preincubation, 120 min reaction, room temperature
Summary of the method: (§1)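 TR-FRET assay with 0.15 μM Rb (Ser780)-biotin substrate and 0-10 μM compound in 50 mM HEPES pH7.0, 50 mM MgCl2, 1 mM DTT. ATP was 0.060 mM for CDK2/Cyclin E1 and 0.015 mM for CDK1/Cyclin B1. Kinase was preincubated with compound 60 min, reacted 120 min at room temperature, and IC50 was fitted (four-parameter) from the 665/620 nm ratio.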

CDK1/Cyclin B1 = CDK1/Cyclin B1 (Homo sapiens, UniProt P06493); experiment: CDK1/Cyclin B1 Biochemical Assay (TR-FRET), 0.015 mM ATP; settings: 0.15 μM Rb (Ser780)-biotin substrate, pH7.0, 60 min preincubation, 120 min reaction, room temperature
Summary of the method: as §1

CDK1/Cyclin B1, sequence (P06493 whole entry): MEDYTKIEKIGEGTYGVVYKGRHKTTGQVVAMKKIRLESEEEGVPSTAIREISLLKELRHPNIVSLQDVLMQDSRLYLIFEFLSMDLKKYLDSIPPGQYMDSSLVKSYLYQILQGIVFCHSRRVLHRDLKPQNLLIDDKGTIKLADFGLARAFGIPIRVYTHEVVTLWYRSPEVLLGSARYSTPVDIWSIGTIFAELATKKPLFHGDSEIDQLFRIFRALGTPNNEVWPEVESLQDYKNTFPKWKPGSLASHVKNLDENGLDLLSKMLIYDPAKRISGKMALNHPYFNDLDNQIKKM
CDK1/Cyclin B1, sequence (P14635 whole entry partner): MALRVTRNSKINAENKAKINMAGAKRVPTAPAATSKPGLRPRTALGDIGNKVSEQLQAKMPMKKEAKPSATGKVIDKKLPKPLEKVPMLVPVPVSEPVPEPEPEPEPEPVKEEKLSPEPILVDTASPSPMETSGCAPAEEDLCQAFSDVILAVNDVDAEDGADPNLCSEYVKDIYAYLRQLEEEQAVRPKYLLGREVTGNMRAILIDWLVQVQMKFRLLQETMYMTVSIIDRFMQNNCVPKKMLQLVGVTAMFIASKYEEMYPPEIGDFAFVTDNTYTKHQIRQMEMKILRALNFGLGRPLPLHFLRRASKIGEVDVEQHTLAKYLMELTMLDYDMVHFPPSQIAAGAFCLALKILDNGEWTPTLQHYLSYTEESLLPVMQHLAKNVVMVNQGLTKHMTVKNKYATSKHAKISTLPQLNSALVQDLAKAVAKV

Compound	IC50 (CDK2/Cyclin E1) [nM]	IC50 (CDK1/Cyclin B1) [nM]
CC(C)NC(=O)O[C@H]1CC[C@@H](c2cc(Nc3ccc4c(c3F)CN(CC3CN(S(C)(=O)=O)C3)S4(=O)=O)n[nH]2)C1 (relative stereo) [Example 326, cis-3-(3-((4-fluoro-2-((1-(methylsulfonyl)azetidin-3-yl)methyl)-1,1-dioxido-2,3-dihydrobenzo[d]isothiazol-5-yl)amino)-1H-pyrazol-5-yl)cyclopentyl isopropylcarbamate]	6.6	290
CC(C)(CO)NC(=O)O[C@H]1CC[C@@H](c2cc(Nc3ccc4c(c3F)CNS4(=O)=O)n[nH]2)C1 (relative stereo) [Example 329, cis-3-(3-((4-fluoro-1,1-dioxido-2,3-dihydrobenzo[d]isothiazol-5-yl)amino)-1H-pyrazol-5-yl)cyclopentyl(1-hydroxy-2-methylpropan-2-yl)carbamate]	2.7	175
COCC(C)NC(=O)O[C@H]1CC[C@@H](c2cc(Nc3ccc4c(c3F)CS(=O)(=O)N4C)n[nH]2)C1 (relative stereo) [Example 331, cis-3-(3-((4-fluoro-1-methyl-2,2-dioxido-1,3-dihydrobenzo[c]isothiazol-5-yl)amino)-1H-pyrazol-5-yl)cyclopentyl(1-methoxypropan-2-yl)carbamate]	3.9	229
O=C(NC1(CO)CC1)O[C@H]1CC[C@@H](c2cc(Nc3ccc4c(c3F)CNS4(=O)=O)n[nH]2)C1 (relative stereo) [Example 333, cis-3-(3-((4-fluoro-1,1-dioxido-2,3-dihydrobenzo[d]isothiazol-5-yl)amino)-1H-pyrazol-5-yl)cyclopentyl(1-(hydroxymethyl)cyclopropyl)carbamate]	10	402
CN1Cc2c(ccc(Nc3cc([C@@H]4CC[C@H](OC(=O)NC5(C)CCOC5)C4)[nH]n3)c2F)S1(=O)=O (relative stereo) [Example 335, cis-3-(3-((4-fluoro-2-methyl-1,1-dioxido-2,3-dihydrobenzo[d]isothiazol-5-yl)amino)-1H-pyrazol-5-yl)cyclopentyl(3-methyltetrahydrofuran-3-yl)carbamate]	5.1	351
CN1Cc2c(ccc(Nc3cc([C@@H]4CC[C@H](OC(=O)NC5COC5)C4)[nH]n3)c2F)S1(=O)=O (relative stereo) [Example 336, cis-3-(3-((4-fluoro-2-methyl-1,1-dioxido-2,3-dihydrobenzo[d]isothiazol-5-yl)amino)-1H-pyrazol-5-yl)cyclopentyl oxetan-3-ylcarbamate]	97	1470
CC(NC(=O)O[C@H]1CC[C@@H](c2cc(Nc3ccc4c(c3F)CN(C)S4(=O)=O)n[nH]2)C1)C1COC1 (relative stereo) [Example 337, cis-3-(3-((4-fluoro-2-methyl-1,1-dioxido-2,3-dihydrobenzo[d]isothiazol-5-yl)amino)-1H-pyrazol-5-yl)cyclopentyl(1-(oxetan-3-yl)ethyl)carbamate]	42	1730
COCC(C)NC(=O)O[C@H]1CC[C@@H](c2cc(Nc3ccc4c(c3F)CN(C)S4(=O)=O)n[nH]2)C1 (relative stereo) [Example 338, cis-3-(3-((4-fluoro-2-methyl-1,1-dioxido-2,3-dihydrobenzo[d]isothiazol-5-yl)amino)-1H-pyrazol-5-yl)cyclopentyl(1-methoxypropan-2-yl)carbamate]	13	544
CN1c2ccc(Nc3cc([C@@H]4CC[C@H](OC(=O)N[C@H]5CC[C@@H](O)CC5)C4)[nH]n3)cc2CS1(=O)=O (relative stereo) [Example 341, cis-3-(3-((1-methyl-2,2-dioxido-1,3-dihydrobenzo[c]isothiazol-5-yl)amino)-1H-pyrazol-5-yl)cyclopentyl((1s,4s)-4-hydroxycyclohexyl)carbamate]	4.7	77
COCC1(NC(=O)O[C@H]2CC[C@@H](c3cc(Nc4ccc5c(c4F)CN(C)S5(=O)=O)n[nH]3)C2)CC1 (relative stereo) [Example 344, cis-3-(3-((4-fluoro-2-methyl-1,1-dioxido-2,3-dihydrobenzo[d]isothiazol-5-yl)amino)-1H-pyrazol-5-yl)cyclopentyl(1-(methoxymethyl)cyclopropyl)carbamate]	6.4	626
CN1c2ccc(Nc3cc([C@@H]4CC[C@H](OC(=O)N[C@H]5CC[C@@H](O)CC5)C4)[nH]n3)c(F)c2CS1(=O)=O (relative stereo) [Example 347, cis-3-(3-((4-fluoro-1-methyl-2,2-dioxido-1,3-dihydrobenzo[c]isothiazol-5-yl)amino)-1H-pyrazol-5-yl)cyclopentyl((1s,4s)-4-hydroxycyclohexyl)carbamate]	9.3	411
CN1c2ccc(Nc3cc([C@@H]4CC[C@H](OC(=O)NC5(CO)CC5)C4)[nH]n3)c(F)c2CS1(=O)=O (relative stereo) [Example 350, cis-3-(3-((4-fluoro-1-methyl-2,2-dioxido-1,3-dihydrobenzo[c]isothiazol-5-yl)amino)-1H-pyrazol-5-yl)cyclopentyl(1-(hydroxymethyl)cyclopropyl)carbamate]	20	321

Continued, values first:

IC50 (CDK2/Cyclin E1) [nM]	IC50 (CDK1/Cyclin B1) [nM]	Compound
1.6	44	CC(C)NC(=O)O[C@H]1CC[C@@H](c2cc(Nc3ccc4c(c3F)S(=O)(=O)CC4)n[nH]2)C1 (relative stereo) [Example 314, cis-3-(3-((7-fluoro-1,1-dioxido-2,3-dihydrobenzo[b]thiophen-6-yl)amino)-1H-pyrazol-5-yl)cyclopentyl isopropylcarbamate]
257	1750	CC(C)NC(=O)O[C@@H]1CC[C@H](c2cc(Nc3ccc4c(c3)S(=O)(=O)CN4C(=O)OC(C)(C)C)n[nH]2)C1 (relative stereo) [Example 318, cis-tert-butyl 6-((5-(3-((isopropylcarbamoyl)oxy)cyclopentyl)-1H-pyrazol-3-yl)amino)benzo[d]thiazole-3 (2H)-carboxylate 1,1-dioxide]
85	1750	CC(C)NC(=O)O[C@@H]1CC[C@H](c2cc(Nc3ccc4c(c3)N(C(=O)OC(C)(C)C)CS4(=O)=O)n[nH]2)C1 (relative stereo) [Example 319, cis-tert-butyl 5-((5-(3-((isopropylcarbamoyl)oxy)cyclopentyl)-1H-pyrazol-3-yl)amino)benzo[d]thiazole-3 (2H)-carboxylate 1,1-dioxide]
134	1760	CC(C)NC(=O)O[C@H]1CC[C@@H](c2cc(Nc3ccc4c(c3)NS(=O)(=O)N4)n[nH]2)C1 (relative stereo) [Example 320, cis-3-(3-((2,2-dioxido-1,3-dihydrobenzo[c][1,2,5]thiadiazol-5-yl)amino)-1H-pyrazol-5-yl)cyclopentyl isopropylcarbamate]
3.3	83	C[C@@H](CO)NC(=O)O[C@H]1CC[C@@H](c2cc(Nc3ccc4c(c3)CS(=O)(=O)N4C)n[nH]2)C1 (relative stereo) [Example 324, cis-3-(3-((1-methyl-2,2-dioxido-1,3-dihydrobenzo[c]isothiazol-5-yl)amino)-1H-pyrazol-5-yl)cyclopentyl((S)-1-hydroxypropan-2-yl)carbamate]
84	899	CC(C)NC(=O)O[C@H]1CC[C@@H](c2cc(Nc3ccc4c(c3)C(F)(F)S(=O)(=O)N4)n[nH]2)C1 (relative stereo) [Example 334, cis-3-(3-((3,3-difluoro-2,2-dioxido-1,3-dihydrobenzo[c]isothiazol-5-yl)amino)-1H-pyrazol-5-yl)cyclopentyl isopropylcarbamate]
4.9	61	CN1c2ccc(Nc3cc([C@@H]4CC[C@H](OC(=O)NC5(CO)CC5)C4)[nH]n3)cc2CS1(=O)=O (relative stereo) [Example 342, cis-3-(3-((1-methyl-2,2-dioxido-1,3-dihydrobenzo[c]isothiazol-5-yl)amino)-1H-pyrazol-5-yl)cyclopentyl(1-(hydroxymethyl)cyclopropyl)carbamate]
3.2	43	CC(NC(=O)O[C@H]1CC[C@@H](c2cc(Nc3ccc4c(c3)CS(=O)(=O)N4)n[nH]2)C1)C1COC1 (relative stereo) [Example 343, cis-3-(3-((2,2-dioxido-1,3-dihydrobenzo[c]isothiazol-5-yl)amino)-1H-pyrazol-5-yl)cyclopentyl(1-(oxetan-3-yl)ethyl)carbamate]
64	1730	CC(C)NC(=O)O[C@H]1CC[C@@H](c2cc(Nc3ccc4c(c3CO)CNS4(=O)=O)n[nH]2)C1 (relative stereo) [Example 345, cis-3-(3-((4-(hydroxymethyl)-1,1-dioxido-2,3-dihydrobenzo[d]isothiazol-5-yl)amino)-1H-pyrazol-5-yl)cyclopentyl isopropylcarbamate]
31	482	CC(C)NC(=O)O[C@H]1CC[C@@H](c2cc(Nc3ccc4c(c3)C(F)(F)S(=O)(=O)N4C)n[nH]2)C1 (relative stereo) [Example 346, cis-3-(3-((3,3-difluoro-1-methyl-2,2-dioxido-1,3-dihydrobenzo[c]isothiazol-5-yl)amino)-1H-pyrazol-5-yl)cyclopentyl isopropylcarbamate]
22	635	C[C@@H](CO)NC(=O)O[C@H]1CC[C@@H](c2cc(Nc3ccc4c(c3F)CS(=O)(=O)N4C)n[nH]2)C1 (relative stereo) [Example 348, cis-3-(3-((4-fluoro-1-methyl-2,2-dioxido-1,3-dihydrobenzo[c]isothiazol-5-yl)amino)-1H-pyrazol-5-yl)cyclopentyl((S)-1-hydroxypropan-2-yl)carbamate]
